A value given as a limit tells only on which side of the number the result lay.

The target of data set [1] is T1, serum ApoE (Macaca mulatta, UniProt Q28502).
T1 construct: from tissue; host or cells: rhesus monkey serum
The experiment in a line: Heparin Sepharose HI-TRAP binding assay. Details: species or system rhesus monkey. To be noted: HI-TRAP binding upon rhesus serum incubation, 2×DPBS conditions. How it is done:
Lipid nanoparticles (LNP) with neutral surface charge are not retained after injection onto heparin sepharose with 1× Dulbecco's phosphate buffered saline (DPBS) as the running buffer but elute in the column void volume. […] Lipid nanoparticles with surface bound ApoE bind to heparin sepharose with high affinity and are eluted only at high salt (1M NaCl).
Lipid nanoparticles were incubated at 37° C. for 20 min at a final siRNA concentration of 50 μg/mL with various concentrations of either purified or recombinant human apolipoprotein E or 0.1-50% rat/mouse/rhesus monkey/human serum in 1× Dulbccco's phosphate buffered saline (DPBS). After incubation with ApoE or serum LNP samples were diluted 10-fold using 1×DPBS and analyzed by heparin sepharose chromatography. Peak area of retained LNP (after subtraction of appropriate blank signals) is compared to total peak area of LNP control without ApoE and/or serum incubation to determine the percentage of the LNP which undergoes shift to high affinity heparin interaction after incubation with ApoE/serum.
A heparin sepharose HI-TRAP™ chromatography column (GE Healthcare; 1 mL bed volume) is equilibrated with either 1× or 2× Dulbecco's PBS; the higher 2× salt concentration is used for LNPs with higher intrinsic retention on heparin sepharose (presumably due to higher positive surface charge). • Mobile Phase A: 1× or 2×DPBS • Mobile Phase B: 1M NaCl in 10 mM sodium phosphate buffer, pH 7.0 • 100% A delivered isocratically for 10 min followed by step gradient to 100% B; hold for additional 10 min; step gradient back to 100% A and reequilibrate for additional 10 min prior to injection of next sample • Flow rate: 1 mL/min • Sample injection volume: 50 μL. • Detection: UV @260 nm HI-TRAP™ Binding Results Upon Rhesus Serum Incubation (2×DPBS Conditions)

Data set [2] in a line: Determination of cationic lipid levels in rat liver (LC/MS-MS). The class given is in vivo. The following applies: rats, FIG. 3. How it is done: Liver tissue was weighed into 20-ml vials and homogenized in 9 v/w of water using a GenoGrinder 2000 (OPS Diagnostics, 1600 strokes/min, 5 min). A 50 μL aliquot of each tissue homogenate was mixed with 300 μL of extraction/protein precipitating solvent (50/50 acetonitrile/methanol containing 500 nM internal standard) and the plate was centrifuged to sediment precipitated protein. A volume of 200 μL of each supernatant was then transferred to separate wells of a 96-well plate and 10 μl samples were directly analyzed by LC/MS-MS.
Standards were prepared by spiking known amounts of a methanol stock solution of compound into untreated rat liver homogenate (9 vol water/weight liver). Aliquots (50 μL) each standard/liver homogenate was mixed with 300 μL of extraction/protein precipitating solvent (50/50 acetonitrile/methanol containing 500 nM internal standard) and the plate was centrifuged to sediment precipitated protein. A volume of 200 μL of each supernatant was transferred to separate wells of a 96-well plate and 10 μl of each standard was directly analyzed by LC/MS-MS.
Absolute quantification versus standards prepared and extracted from liver homogenate was performed using an Aria LX-2 HPLC system (Thermo Scientific) coupled to an API 4000 triple quadrupole mass spectrometer (Applied Biosystems). […]

Data set [3] relates to CTNNB1 mRNA. The experiment in a line: Rhesus monkey in vivo evaluation of β-catenin efficacy (liver CTNNB1 mRNA). The following applies: beta-catenin siRNA, doses ranging from 0.67-3.34 mg/m^2, intravenous bolus, FIG. 5. How it is done:
On study day −7 predose liver biopsy samples (˜0.5-1 gram/sample) were collected from male rhesus monkeys by laparoscopic surgical resection (resection of one biopsy sample from outer edge of one randomly selected liver lobe per monkey). A 5 mm tissue punch was used to sample three non-adjacent ˜50 mg samples from each predose biopsy. Samples were preserved in RNAlater™ (Ambion) for later CTNNB1 mRNA analysis.
On study day 0 monkeys were administered suspensions of the lipid nanoparticle (LNP) test articles in phosphate buffered saline (0.05-0.1 mg siRNA/mL) via single-dose intravenous bolus injection at target doses of 0.67, 1.34 or 3.34 mg siRNA/m^2. […]
CTNNB1 mRNA levels were measured by relative quantitative RT-PCR using a primer/probe set validated for CTNNB1 and normalized against mRNA levels of peptidylprolyl isomerase B (also known as PPIB or cyclophilin B) and RNA levels of 18S ribosomal RNA (18S rRNA). Change in CTNNB1 mRNA liver expression was measured as the difference in PCR threshold cycle number (ΔΔCt) between post-dose samples and each corresponding monkey's predose liver samples.
Calculation of CTNNB1 mRNA knockdown (with respect to pretreatment levels) was calculated from ΔΔCt using the following relationship: mRNA (% knockdown)=100−(100/2^−ΔΔCt)

Data set [4] can be described thus: Rhesus monkey in vivo evaluation of ALT increases. To be noted: serum, FIG. 6. How it is done:
Alanine aminotransferase (ALT) is measured in serum that is harvested from clotted monkey whole blood after centrifugation. A Roche Modular System automated chemistry analyzer measures the enzymatic activity of ALT in the serum by using International Federation of Clinical Chemistry standardized procedures and reagents. The analyzer's computer uses absorbance measurements to calculated ALT activity in the sample as compared to a standard curve. The ALT activity is reported in International Units per Liter (IU/L).

T1 sequence (Q28502 19-295): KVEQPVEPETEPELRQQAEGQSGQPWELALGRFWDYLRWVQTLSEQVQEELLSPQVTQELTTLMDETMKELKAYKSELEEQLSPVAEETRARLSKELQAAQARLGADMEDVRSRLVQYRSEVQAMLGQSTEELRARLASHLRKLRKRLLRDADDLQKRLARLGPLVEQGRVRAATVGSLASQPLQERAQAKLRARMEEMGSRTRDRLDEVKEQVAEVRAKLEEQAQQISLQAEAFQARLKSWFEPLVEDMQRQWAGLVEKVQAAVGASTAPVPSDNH

In the case of `CCCCC/C=C\C/C=C\CCCCCCCCCC(CCCCCCCCC)CCN(C)C` (centres unmarked) [Compound 32, (13Z,16Z)—N,N-dimethyl-3-nonyldocosa-13,16-dien-1-amine], in data set [1], the “% Bound” value amounted to 100%. For the same compound, the “cationic lipid liver levels compared with RDV containing DLinKC2DMA (Compound 45) or MC3 (Compound 46)” value in data set [2] is “either similar to or lower than”. Also, the “CTNNB1 mRNA knockdown in liver” value in data set [3] is recorded as “robust KD”. Moreover, in data set [4], the “peak ALT elevations compared with RDV containing DLinKC2DMA (Compound 45) or MC3 (Compound 46)” value was “lower peak ALT elevations”.

Turning to `CCCCCCCCCC(CCCCCCCC1CC1CCCCCCCC)N(C)C` [Compound 33, N,N-dimethyl-1-[(1S,2R)-2-octylcyclopropyl]hepladecan-8-amine], in data set [1], the “% Bound” value is recorded as below 5%. Moreover, the “cationic lipid liver levels compared with RDV containing DLinKC2DMA (Compound 45) or MC3 (Compound 46)” value in data set [2] was “either similar to or lower than”. In addition, the “CTNNB1 mRNA knockdown in liver” value in data set [3] is “robust KD”. For the same compound, in data set [4], the “peak ALT elevations compared with RDV containing DLinKC2DMA (Compound 45) or MC3 (Compound 46)” value is reported as “lower peak ALT elevations”.
